Test results published in ChEMBL document CHEMBL2413072, “Synthesis and in vitro anticancer studies of novel C-2 arylidene congeners of lantadenes” (2013).

How the values were obtained:
Type in all cases: functional
NCI-H522 [1] = assay: Growth inhibition of human NCI-H522 cells assessed as cell growth at 10^-7 M by sulforhodamine B assay; settings: read-out: Activity
COLO 205 = assay: Growth inhibition of human COLO205 cells assessed as cell growth at 10^-7 M by sulforhodamine B assay; settings: read-out: Activity
786-0 = assay: Growth inhibition of human 786-0 cells assessed as cell growth at 10^-8 M by sulforhodamine B assay; settings: read-out: Activity
SK-MEL-28 [2] = assay: Growth inhibition of human SK-MEL-28 cells assessed as cell growth at 10^-8 M by sulforhodamine B assay; settings: read-out: Activity
UACC-62 = assay: Growth inhibition of human UACC62 cells assessed as cell growth at 10^-4 M by sulforhodamine B assay; settings: read-out: Activity
TK-10 [3] = assay: Growth inhibition of human TK10 cells assessed as cell growth at 10^-4 M by sulforhodamine B assay; settings: read-out: Activity
SF-539 [4] = assay: Growth inhibition of human SF539 cells assessed as cell growth at 10^-6 M by sulforhodamine B assay; settings: read-out: Activity
UACC-257 = assay: Growth inhibition of human UACC257 cells assessed as cell growth at 10^-8 M by sulforhodamine B assay; settings: read-out: Activity
T47D = assay: Growth inhibition of human T47D cells assessed as cell growth at 10^-8 M by sulforhodamine B assay; settings: read-out: Activity
A549 = assay: Growth inhibition of human A549/ATCC cells assessed as cell growth at 10^-7 M by sulforhodamine B assay; settings: read-out: Activity
TK-10 [5] = assay: Growth inhibition of human TK10 cells assessed as cell growth at 10^-8 M by sulforhodamine B assay; settings: read-out: Activity
A498 = assay: Growth inhibition of human A498 cells assessed as cell growth at 10^-7 M by sulforhodamine B assay; settings: read-out: Activity
IGROV-1 = assay: Growth inhibition of human IGROV1 cells assessed as cell growth at 10^-8 M by sulforhodamine B assay; settings: read-out: Activity
HCT-116 = assay: Growth inhibition of human HCT116 cells assessed as cell growth at 10^-6 M by sulforhodamine B assay; settings: read-out: Activity
MDA-MB-435 [6] = assay: Growth inhibition of human MDA-MB-435 cells assessed as cell growth at 10^-8 M by sulforhodamine B assay; settings: read-out: Activity
CAKI-1 = assay: Growth inhibition of human CAKI-1 cells assessed as cell growth at 10^-7 M by sulforhodamine B assay; settings: read-out: Activity
BT-549 = assay: Growth inhibition of human BT549 cells assessed as cell growth at 10^-6 M by sulforhodamine B assay; settings: read-out: Activity
OVCAR-8 = assay: Growth inhibition of human OVCAR8 cells assessed as cell growth at 10^-8 M by sulforhodamine B assay; settings: read-out: Activity
NCI-H522 [7] = assay: Growth inhibition of human NCI-H522 cells assessed as cell growth at 10^-8 M by sulforhodamine B assay; settings: read-out: Activity
CCRF-CEM [8] = assay: Growth inhibition of human CCRF-CEM cells by sulforhodamine B assay
SK-MEL-28 [9] = assay: Growth inhibition of human SK-MEL-28 cells assessed as cell growth at 10^-4 M by sulforhodamine B assay; settings: read-out: Activity
HL-60(TB) = assay: Growth inhibition of human HL-60(TB) cells assessed as cell growth at 10^-7 M by sulforhodamine B assay; settings: read-out: Activity
SF-539 [10] = assay: Growth inhibition of human SF539 cells assessed as cell growth at 10^-7 M by sulforhodamine B assay; settings: read-out: Activity
OVCAR-4 = assay: Growth inhibition of human OVCAR4 cells assessed as cell growth at 10^-8 M by sulforhodamine B assay; settings: read-out: Activity
SF-295 = assay: Growth inhibition of human SF295 cells assessed as cell growth at 10^-6 M by sulforhodamine B assay; settings: read-out: Activity
NCI-H23 = assay: Growth inhibition of human NCI-H23 cells by sulforhodamine B assay
NCI-H460 = assay: Growth inhibition of human NCI-H460 cells assessed as cell growth at 10^-4 M by sulforhodamine B assay; settings: read-out: Activity
MDA-MB-435 [11] = assay: Growth inhibition of human MDA-MB-435 cells assessed as cell growth at 10^-7 M by sulforhodamine B assay; settings: read-out: Activity
MDA-MB-231 = assay: Growth inhibition of human MDA-MB-231 cells by sulforhodamine B assay
HT-29 [12] = assay: Growth inhibition of human HT-29 cells assessed as cell growth at 10^-4 M by sulforhodamine B assay; settings: read-out: Activity
SW-620 = assay: Growth inhibition of human SW620 cells assessed as cell growth at 10^-6 M by sulforhodamine B assay; settings: read-out: Activity
SK-MEL-2 = assay: Growth inhibition of human SK-MEL-2 cells by sulforhodamine B assay
HCT-15 = assay: Growth inhibition of human HCT15 cells assessed as cell growth at 10^-7 M by sulforhodamine B assay; settings: read-out: Activity
SN12C = assay: Growth inhibition of human SN12C cells by sulforhodamine B assay
HOP-92 = assay: Growth inhibition of human HOP92 cells by sulforhodamine B assay
[13] = Growth inhibition of human HCC2998 cells assessed as cell growth at 10^-8 M by sulforhodamine B assay; settings: HCC 2998, read-out: Activity
HT-29 [14] = assay: Growth inhibition of human HT-29 cells assessed as cell growth at 10^-6 M by sulforhodamine B assay; settings: read-out: Activity
DU-145 = assay: Growth inhibition of human DU145 cells assessed as cell growth at 10^-7 M by sulforhodamine B assay; settings: read-out: Activity
CCRF-CEM [15] = assay: Growth inhibition of human CCRF-CEM cells assessed as cell growth at 10^-7 M by sulforhodamine B assay; settings: read-out: Activity
Malme-3M = assay: Growth inhibition of human MALME-3M cells assessed as cell growth at 10^-8 M by sulforhodamine B assay; settings: read-out: Activity
[16] = read-out: LC50 (the source's name)
[17] = read-out: pLC50 (the source's name) (converted)

## CC(C)=CC(=O)O[C@@H]1CC(C)(C)C[C@H]2C3=CC[C@@H]4[C@@]5(C)CCC(=O)C(C)(C)[C@@H]5CC[C@@]4(C)[C@]3(C)CC[C@@]12C(=O)O
NCI-H522 [1]
  growth at 0.1 µM: 92%
COLO 205
  growth at 0.1 µM: 103%
786-0
  growth at 0.01 µM: 99%
SK-MEL-28 [2]
  growth at 0.01 µM: 108%
UACC-62
  growth at 100 µM: -80%
TK-10 [3]
  growth at 100 µM: -18%
SF-539 [4]
  growth at 1 µM: 90%
UACC-257
  growth at 0.01 µM: 88%
T47D
  growth at 0.01 µM: 103%
A549
  growth at 0.1 µM: 88%
TK-10 [5]
  growth at 0.01 µM: 96%
A498
  growth at 0.1 µM: 80%
IGROV-1
  growth at 0.01 µM: 103%
HCT-116
  growth at 1 µM: 70%
MDA-MB-435 [6]
  growth at 0.01 µM: 99%
CAKI-1
  growth at 0.1 µM: 93%
BT-549
  growth at 1 µM: 90%
OVCAR-8
  growth at 0.01 µM: 95%
NCI-H522 [7]
  growth at 0.01 µM: 102%
CCRF-CEM [8]; read-out: GI50
  GI50: 2.14 µM
CCRF-CEM [8]; [16]
  CC50: > 100 µM
CCRF-CEM [8]; read-out: TGI
  TGI: 22.1 µM
CCRF-CEM [8]; read-out: pGI50 (converted)
  GI50: 2.14 µM
CCRF-CEM [8]; [17]
  CC50: > 100 µM
CCRF-CEM [8]; read-out: pTGI (converted)
  TGI: 22.4 µM
SK-MEL-28 [9]
  growth at 100 µM: 6%
HL-60(TB)
  growth at 0.1 µM: 93%
SF-539 [10]
  growth at 0.1 µM: 91%
OVCAR-4
  growth at 0.01 µM: 99%
SF-295
  growth at 1 µM: 63%
NCI-H23; read-out: GI50
  GI50: 3.96 µM
NCI-H23; [16]
  CC50: > 100 µM
NCI-H23; read-out: TGI
  TGI: 51.9 µM
NCI-H23; read-out: pGI50 (converted)
  GI50: 3.98 µM
NCI-H23; [17]
  CC50: > 100 µM
NCI-H23; read-out: pTGI (converted)
  TGI: 52.5 µM
NCI-H460
  growth at 100 µM: -54%
MDA-MB-435 [11]
  growth at 0.1 µM: 98%
MDA-MB-231; read-out: GI50
  GI50: 4.03 µM
MDA-MB-231; [16]
  CC50: 71.1 µM
MDA-MB-231; read-out: TGI
  TGI: 21.8 µM
MDA-MB-231; read-out: pGI50 (converted)
  GI50: 4.07 µM
MDA-MB-231; [17]
  CC50: 70.8 µM
MDA-MB-231; read-out: pTGI (converted)
  TGI: 21.9 µM
HT-29 [12]
  growth at 100 µM: -27%
SW-620
  growth at 1 µM: 83%
SK-MEL-2; read-out: GI50
  GI50: 3.48 µM
SK-MEL-2; [16]
  CC50: 61.3 µM
SK-MEL-2; read-out: TGI
  TGI: 16.9 µM
SK-MEL-2; read-out: pGI50 (converted)
  GI50: 3.47 µM
SK-MEL-2; [17]
  CC50: 61.7 µM
SK-MEL-2; read-out: pTGI (converted)
  TGI: 17 µM
HCT-15
  growth at 0.1 µM: 86%
SN12C; read-out: GI50
  GI50: 3.12 µM
SN12C; [16]
  CC50: > 100 µM
SN12C; read-out: TGI
  TGI: 21.8 µM
SN12C; read-out: pGI50 (converted)
  GI50: 3.09 µM
SN12C; [17]
  CC50: > 100 µM
SN12C; read-out: pTGI (converted)
  TGI: 21.9 µM
HOP-92; read-out: GI50
  GI50: 1.7 µM
HOP-92; [16]
  CC50: > 100 µM
HOP-92; read-out: TGI
  TGI: 7.02 µM
HOP-92; read-out: pGI50 (converted)
  GI50: 1.7 µM
HOP-92; [17]
  CC50: > 100 µM
HOP-92; read-out: pTGI (converted)
  TGI: 7.08 µM
[13]
  growth at 0.01 µM: 97%
HT-29 [14]
  growth at 1 µM: 82%
DU-145
  growth at 0.1 µM: 105%
CCRF-CEM [15]
  growth at 0.1 µM: 99%
Malme-3M
  growth at 0.01 µM: 94%
